The results in this text go back to ChEMBL document CHEMBL5579859, “Discovery of novel indazole derivatives as second-generation TRK inhibitors” (Eur J Med Chem, 2024).

Where only a bound is given, the exact number is not on record here.

The target of assay [1] is High affinity nerve growth factor receptor (Homo sapiens, UniProt P04629, G595R). The assay is described as follows: Inhibition of TRKA G595R mutant (unknown origin) using TK as substrate incubated for 30 mins in presence of ATP by HTRF assay. Background: TR-FRET usually uses a lanthanide donor and a delayed reading to cut background.
Sequence of High affinity nerve growth factor receptor (Homo sapiens, UniProt P04629, G595R) (P04629 33-796 G595R limits assumed): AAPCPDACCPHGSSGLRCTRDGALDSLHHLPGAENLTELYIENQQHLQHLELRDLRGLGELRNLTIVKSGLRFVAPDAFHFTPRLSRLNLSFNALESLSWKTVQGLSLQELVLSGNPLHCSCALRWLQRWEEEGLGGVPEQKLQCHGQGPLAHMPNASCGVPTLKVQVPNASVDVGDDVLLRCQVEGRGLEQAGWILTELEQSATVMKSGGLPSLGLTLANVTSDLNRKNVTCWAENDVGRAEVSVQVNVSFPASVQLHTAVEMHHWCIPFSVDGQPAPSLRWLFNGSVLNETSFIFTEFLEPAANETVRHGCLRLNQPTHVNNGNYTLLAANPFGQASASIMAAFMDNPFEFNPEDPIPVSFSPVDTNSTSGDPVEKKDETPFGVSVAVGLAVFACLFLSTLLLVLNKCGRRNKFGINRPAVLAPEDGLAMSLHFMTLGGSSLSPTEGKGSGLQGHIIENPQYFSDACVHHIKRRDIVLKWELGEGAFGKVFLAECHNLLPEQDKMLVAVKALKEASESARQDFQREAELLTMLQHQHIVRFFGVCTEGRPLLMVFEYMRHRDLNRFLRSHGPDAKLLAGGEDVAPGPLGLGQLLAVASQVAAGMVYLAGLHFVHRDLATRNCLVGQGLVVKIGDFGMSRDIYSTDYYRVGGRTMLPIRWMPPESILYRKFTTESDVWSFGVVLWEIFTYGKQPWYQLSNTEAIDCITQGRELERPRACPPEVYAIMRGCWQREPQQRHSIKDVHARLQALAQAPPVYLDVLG
For assay [2], the target named is High affinity nerve growth factor receptor (Homo sapiens, UniProt P04629, F589L). The assay is described as follows: Inhibition of TRKA F589L mutant (unknown origin) using TK as substrate incubated for 30 mins in presence of ATP by HTRF assay.
Sequence of High affinity nerve growth factor receptor (Homo sapiens, UniProt P04629, F589L) (P04629 33-796 F589L limits assumed): as the sequence (P04629 33-796 G595R limits assumed) above, with F557L, R563G counted along it
The target in assay [3] is High affinity nerve growth factor receptor (Homo sapiens, UniProt P04629, G667C). The assay is described as follows: Inhibition of TRKA G667C mutant (unknown origin) using TK as substrate incubated for 30 mins in presence of ATP by HTRF assay.
Sequence of High affinity nerve growth factor receptor (Homo sapiens, UniProt P04629, G667C) (P04629 33-796 G667C limits assumed): as the sequence (P04629 33-796 G595R limits assumed) above, with R563G, G635C counted along it
Assay [4] has as its target High affinity nerve growth factor receptor (Homo sapiens, UniProt P04629). The assay is described as follows: Inhibition of TRKA (unknown origin) using TK as substrate incubated for 30 mins in presence of ATP by HTRF assay.
The target in assay [5] is NT-3 growth factor receptor (Homo sapiens, UniProt Q16288). The assay is described as follows: Inhibition of TRKC (unknown origin) using TK as substrate incubated for 40 mins in presence of ATP by HTRF assay.
Sequence of NT-3 growth factor receptor (Q16288 whole entry): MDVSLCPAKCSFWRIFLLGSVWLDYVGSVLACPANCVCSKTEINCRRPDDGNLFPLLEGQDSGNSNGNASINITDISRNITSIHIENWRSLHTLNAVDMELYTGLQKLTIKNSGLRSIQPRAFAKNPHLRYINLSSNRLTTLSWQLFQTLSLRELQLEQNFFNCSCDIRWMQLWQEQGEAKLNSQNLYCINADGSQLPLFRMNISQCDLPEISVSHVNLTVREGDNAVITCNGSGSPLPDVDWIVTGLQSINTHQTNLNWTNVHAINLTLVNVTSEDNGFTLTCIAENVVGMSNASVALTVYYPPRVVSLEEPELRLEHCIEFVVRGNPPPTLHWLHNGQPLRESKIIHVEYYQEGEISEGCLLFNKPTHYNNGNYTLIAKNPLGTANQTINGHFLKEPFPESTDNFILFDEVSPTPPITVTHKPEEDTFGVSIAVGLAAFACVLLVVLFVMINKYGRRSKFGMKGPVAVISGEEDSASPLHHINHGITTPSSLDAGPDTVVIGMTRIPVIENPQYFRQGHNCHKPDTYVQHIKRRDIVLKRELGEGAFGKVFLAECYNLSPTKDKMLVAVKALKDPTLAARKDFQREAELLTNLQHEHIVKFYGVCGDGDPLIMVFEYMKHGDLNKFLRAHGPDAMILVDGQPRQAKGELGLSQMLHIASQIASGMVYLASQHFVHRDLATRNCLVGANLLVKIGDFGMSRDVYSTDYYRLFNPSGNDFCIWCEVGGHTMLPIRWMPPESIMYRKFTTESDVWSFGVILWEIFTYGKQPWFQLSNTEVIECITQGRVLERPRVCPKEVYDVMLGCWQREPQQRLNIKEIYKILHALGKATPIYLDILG
The next assay concerns KM12. The assay is described as follows: cells. To be noted: Homo sapiens, KM12, 72 h.
The subject of assay [6] is BaF3. The assay is described as follows: cells. The settings on record: Mus musculus, BaF3, 72 h.
Description: Antiproliferative activity against mouse BaF3 cells expressing TRKA G595R mutant incubated for 72 hrs by CCK8 assay
Assay [7] concerns BaF3. The assay is described as follows: cells. The settings on record: Mus musculus, BaF3, 72 h. The source holds these as a separate data set.
The subject of another assay is MCF7. The assay is described as follows: cells. The settings on record: Homo sapiens, MCF7, 72 h.

Sequence of High affinity nerve growth factor receptor (Homo sapiens, UniProt P04629) (P04629 whole entry): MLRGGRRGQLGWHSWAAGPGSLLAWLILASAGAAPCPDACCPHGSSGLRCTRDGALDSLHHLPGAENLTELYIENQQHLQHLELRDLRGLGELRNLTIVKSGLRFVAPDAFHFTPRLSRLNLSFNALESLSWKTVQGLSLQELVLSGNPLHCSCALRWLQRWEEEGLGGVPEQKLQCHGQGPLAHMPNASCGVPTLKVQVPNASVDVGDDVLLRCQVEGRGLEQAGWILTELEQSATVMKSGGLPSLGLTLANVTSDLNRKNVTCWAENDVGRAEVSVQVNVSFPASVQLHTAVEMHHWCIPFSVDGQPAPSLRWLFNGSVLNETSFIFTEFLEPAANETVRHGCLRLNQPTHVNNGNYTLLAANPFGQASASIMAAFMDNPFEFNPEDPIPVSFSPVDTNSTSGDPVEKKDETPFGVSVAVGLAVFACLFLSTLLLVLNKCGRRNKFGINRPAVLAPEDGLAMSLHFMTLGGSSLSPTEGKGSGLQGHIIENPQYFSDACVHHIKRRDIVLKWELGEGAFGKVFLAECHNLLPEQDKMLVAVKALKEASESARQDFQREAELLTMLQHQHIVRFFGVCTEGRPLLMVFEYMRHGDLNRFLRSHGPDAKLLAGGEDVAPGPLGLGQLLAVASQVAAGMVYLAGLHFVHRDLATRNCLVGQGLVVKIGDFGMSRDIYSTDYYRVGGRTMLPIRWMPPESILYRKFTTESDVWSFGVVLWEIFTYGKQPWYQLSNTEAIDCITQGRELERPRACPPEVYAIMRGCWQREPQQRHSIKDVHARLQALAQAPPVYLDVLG
Description for KM12: Antiproliferative activity against human KM12 cells incubated for 72 hrs by CCK8 assay
Description for MCF7: Antiproliferative activity against human MCF7 cells incubated for 72 hrs by CCK8 assay

As a reminder, the IC50 is the point on the concentration scale where inhibition reaches its midpoint. As for `COc1ccc(F)cc1CNc1ccc2[nH]nc(C(=O)N3CCC(F)(F)C3)c2c1`, the IC50 in assay [1] was 33100 nM. With `N#Cc1n[nH]c2ccc(NCc3cc(F)ccc3OCC(F)F)cc12`, the 50% inhibitory concentration (IC50) was 30 nM in [1]; 10 nM in assay [2]; 1200 nM in assay [3]; 32 nM in assay [4]; 3 nM in assay [5]. Consider `CNC(=O)c1n[nH]c2ccc(NCc3cc(F)ccc3OC(F)F)cc12`, for which the IC50 in assay [1] was 380 nM. On the same count and under the same terms, then `COc1ccc(F)cc1CNc1ccc2[nH]nc(C(=O)NCC(F)F)c2c1`, with 8590 nM; and `CNC(=O)c1n[nH]c2ccc(NCc3cc(F)ccc3OCCF)cc12`, with 200 nM. On to `COc1ccc(F)cc1CNc1ccc2[nH]nc(C(N)=O)c2c1`, for which, in assay [1], the IC50 turned out to be 670 nM. Turning to `CNC(=O)c1n[nH]c2ccc(NCc3cc(F)ccc3OC)cc12`, in assay [1], the IC50 was found to be 92 nM. As for `C[C@@H]1CCc2ncc(F)cc2[C@H]2CCCN2c2ccn3ncc(c3n2)C(=O)N1` [SELITRECTINIB], the concentration for half-maximal inhibition (IC50) with KM12 is 6.8 nM; in the assay on BaF3 [6] it was 12 nM; in the assay on BaF3 [7], 113 nM; in the assay on MCF7, above 10 µM. Consider `Fc1ccc(OCC(F)F)c(CNc2ccc3[nH]nc(-n4ccnn4)c3c2)c1`, for which the half-inhibitory concentration (IC50) in assay [1] amounted to 63 nM; in assay [2], 2 nM; in assay [3], 61 nM; in assay [4] it was 3 nM; in assay [5] it was 4 nM; in the assay on KM12, 9.8 nM. In addition, the IC50 was 132 nM with BaF3 [6], 136 nM in the assay on BaF3 [7] and above 10 µM in the assay on MCF7. Turning to `COc1ccc(F)cc1CNc1ccc2[nH]nc(-c3cn[nH]c3)c2c1`, in assay [1], the IC50 stood at 110 nM. Still for that read-out and setting: next, `COc1ccc(F)cc1CNc1ccc2[nH]nc(-n3cc(F)cn3)c2c1`: 350 nM. On the same count and under the same terms, then `COc1ccc(F)cc1CNc1ccc2[nH]nc(C(=O)NC3CC3)c2c1`, with 3650 nM.

Regarding `CNC(=O)c1n[nH]c2ccc(NCc3cc(F)ccc3OCC(F)F)cc12`, in assay [5], the half-maximal inhibitory concentration (IC50) came to 3 nM. In the case of `CNC(=O)c1n[nH]c2ccc(NCc3cc(F)ccc3OC3CCOC3)cc12` (stereo unspecified), the half-maximal inhibitory concentration (IC50) in assay [1] turned out to be 210 nM.

As for `CNC(=O)c1n[nH]c2ccc(NCc3cc(F)ccc3S(C)(=O)=O)cc12`, the IC50 in [1] was 1120 nM. Still for that read-out and setting: next, `CNC(=O)c1n[nH]c2ccc(NCc3cc(F)ccc3OC3CCOCC3)cc12`: 290 nM. Turning to `COc1ccc(F)cc1CNc1ccc2[nH]nc(-c3cccc(F)c3)c2c1`, the 50% inhibitory concentration (IC50) in assay [1] was determined as 360 nM. On to `Fc1ccc(OCC(F)F)c(CNc2ccc3[nH]nc(-c4cnoc4)c3c2)c1`, for which the half-inhibitory concentration (IC50) turned out to be 35 nM in assay [1], 8 nM in assay [2], 49 nM in assay [3] and 5 nM in [4]. As for `CNC(=O)c1n[nH]c2ccc(NCc3cc(F)ccc3OC(C)C)cc12`, the concentration for half-maximal inhibition (IC50) in [1] was 240 nM. Turning to `COc1ccc(F)cc1CNc1ccc2[nH]nc(-n3cccn3)c2c1`, in assay [1], the half-maximal inhibitory concentration (IC50) amounted to 550 nM. Still for that read-out and setting: then `COc1ccc(F)cc1CNc1ccc2[nH]nc(-c3ccc(F)cc3)c2c1`, with 1350 nM.

`COc1ccc(F)cc1CNc1ccc2[nH]nc(C#N)c2c1`: in assay [1], the IC50 stood at 170 nM. Same read-out and setting: then `COc1ccc(F)cc1CNc1ccc2[nH]nc(-n3cnc(C(F)(F)F)c3)c2c1`, with 580 nM; and `COc1ccc(F)cc1CNc1ccc2[nH]nc(C(=O)N3CCC(O)C3)c2c1` (stereo unspecified), with above 50000 nM. `CNC(=O)c1n[nH]c2ccc(NCc3cc(F)ccc3OCCO)cc12`: in assay [1], the concentration for half-maximal inhibition (IC50) worked out at 1170 nM. Same read-out and setting: next, `COc1ccc(F)cc1CNc1ccc2[nH]nc(-n3cc(C(F)(F)F)cn3)c2c1`: 5700 nM; `CNC(=O)c1n[nH]c2ccc(NCc3cc(F)ccc3P(C)(C)=O)cc12`: 5580 nM.

`COc1ccc(F)cc1CNc1ccc2[nH]nc(C(=O)NO)c2c1`: in [1], the half-maximal inhibitory concentration (IC50) is 4830 nM. As for `Fc1ccc(OCC(F)F)c(CNc2ccc3[nH]nc(-n4cncn4)c3c2)c1`, the half-maximal inhibitory concentration (IC50) was determined as 19 nM in assay [1]; 1 nM in [2]; 25 nM in [3]; 1 nM in assay [4]; 2 nM in assay [5]; 5.7 nM with KM12. For the same compound, the concentration for half-maximal inhibition (IC50) was 54.5 nM in the assay on BaF3 [6], 64.1 nM in the assay on BaF3 [7] and above 10 µM in the assay with MCF7. Take `CNC(=O)c1n[nH]c2ccc(NCc3cc(F)ccc3OCC(F)(F)F)cc12`: the concentration for half-maximal inhibition (IC50) in assay [1] came out at 140 nM.
